Laboratory results from ChEMBL document CHEMBL1201862, “PubChem BioAssay data set” (2004).
Active and inactive are the calls of the source.

How the values were obtained:
[1] = target: Alkaline phosphatase, placental type (Homo sapiens, UniProt P05187); experiment: PLAP enzyme inhibitors, confirmation, biochemical, luminescence (AID 1512); type: functional
[2] = Counterscreen for IDE inhibitors: Luminescence-based cell-based high throughput dose response assay to identify compounds that are cytotoxic to HEK cells. [Related pubchem assays: 434962 (Primary screen (IDE inhibitors in singlicate)), 449730 (Counterscreen (Cytotoxicity in triplicate)), 435028 (Confirmation (IDE inhibitors in triplicate)) …; type: functional; details: HEK293
Insulin-degrading enzyme = target: T1, Insulin-degrading enzyme (Homo sapiens, UniProt P14735); experiment: Dose Response: Fluorescence polarization-based cell-based high throughput dose response assay for inhibitors of insulin-degrading enzyme (IDE). [Related pubchem assays: 434962 (Primary screen (IDE inhibitors in singlicate)), 449730 (Counterscreen (Cytotoxicity in triplicate)), 435028 (Confirmation (IDE inhibitors in triplicate)), 434984 (Summary …; type: functional
T1 sequence (P14735 whole entry): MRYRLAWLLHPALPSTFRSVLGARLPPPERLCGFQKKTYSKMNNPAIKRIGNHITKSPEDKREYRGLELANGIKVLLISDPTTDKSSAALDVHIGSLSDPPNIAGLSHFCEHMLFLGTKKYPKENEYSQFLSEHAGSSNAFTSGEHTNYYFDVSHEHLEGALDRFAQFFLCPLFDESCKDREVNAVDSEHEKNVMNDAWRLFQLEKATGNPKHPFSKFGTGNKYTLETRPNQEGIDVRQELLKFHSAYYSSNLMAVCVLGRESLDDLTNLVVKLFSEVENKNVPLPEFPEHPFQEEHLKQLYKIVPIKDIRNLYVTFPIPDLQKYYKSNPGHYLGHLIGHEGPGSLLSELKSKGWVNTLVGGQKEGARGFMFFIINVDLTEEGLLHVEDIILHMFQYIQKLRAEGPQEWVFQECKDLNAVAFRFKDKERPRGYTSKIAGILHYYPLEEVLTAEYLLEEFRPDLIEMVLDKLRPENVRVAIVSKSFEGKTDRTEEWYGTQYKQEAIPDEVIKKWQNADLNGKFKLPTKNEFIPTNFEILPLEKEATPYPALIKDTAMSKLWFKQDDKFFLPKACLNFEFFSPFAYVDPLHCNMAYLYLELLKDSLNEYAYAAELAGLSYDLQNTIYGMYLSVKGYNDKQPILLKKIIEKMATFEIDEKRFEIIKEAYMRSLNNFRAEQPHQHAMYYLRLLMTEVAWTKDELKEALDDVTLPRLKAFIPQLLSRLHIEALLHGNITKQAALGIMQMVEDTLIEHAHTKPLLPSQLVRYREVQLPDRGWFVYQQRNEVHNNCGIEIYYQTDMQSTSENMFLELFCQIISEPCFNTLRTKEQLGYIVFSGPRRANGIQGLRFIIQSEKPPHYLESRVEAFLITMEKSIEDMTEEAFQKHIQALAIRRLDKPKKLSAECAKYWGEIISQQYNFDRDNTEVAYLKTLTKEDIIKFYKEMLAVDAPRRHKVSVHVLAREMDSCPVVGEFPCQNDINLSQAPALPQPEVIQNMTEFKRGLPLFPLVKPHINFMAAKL

[3] = target: T2, Acyl-homoserine lactone acylase PvdQ (Pseudomonas aeruginosa (strain LESB58), UniProt Q9I194); experiment: P. aeruginosa PvdQ acylase inhibitors, dose response, biochemical, fluorescence, plate reader and imaging, cherry-picks (AID 493231)
T2 sequence (Q9I194 whole entry): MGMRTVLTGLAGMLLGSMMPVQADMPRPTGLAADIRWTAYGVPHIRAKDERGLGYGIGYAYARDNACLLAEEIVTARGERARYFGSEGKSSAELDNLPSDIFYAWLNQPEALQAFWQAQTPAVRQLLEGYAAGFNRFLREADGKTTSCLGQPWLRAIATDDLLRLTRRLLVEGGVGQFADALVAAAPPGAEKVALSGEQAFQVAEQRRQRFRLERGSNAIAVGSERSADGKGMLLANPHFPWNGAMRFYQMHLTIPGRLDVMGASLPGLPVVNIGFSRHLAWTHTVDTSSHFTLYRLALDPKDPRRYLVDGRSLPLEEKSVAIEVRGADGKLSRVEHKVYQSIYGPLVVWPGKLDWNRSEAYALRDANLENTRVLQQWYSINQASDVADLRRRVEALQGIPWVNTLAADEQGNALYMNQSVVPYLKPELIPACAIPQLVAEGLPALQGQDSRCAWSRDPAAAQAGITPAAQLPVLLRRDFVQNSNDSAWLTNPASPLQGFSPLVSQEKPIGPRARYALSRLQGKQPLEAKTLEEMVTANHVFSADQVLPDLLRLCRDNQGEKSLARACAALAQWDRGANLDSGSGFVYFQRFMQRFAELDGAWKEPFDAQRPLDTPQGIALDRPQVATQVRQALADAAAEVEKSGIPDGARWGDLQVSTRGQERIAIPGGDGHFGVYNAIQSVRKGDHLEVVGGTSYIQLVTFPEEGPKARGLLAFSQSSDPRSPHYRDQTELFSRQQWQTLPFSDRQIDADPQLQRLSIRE

Protein skinhead-1 = target: T3, Protein skinhead-1 (Caenorhabditis elegans, UniProt P34707); type: functional
T3 sequence (P34707 whole entry): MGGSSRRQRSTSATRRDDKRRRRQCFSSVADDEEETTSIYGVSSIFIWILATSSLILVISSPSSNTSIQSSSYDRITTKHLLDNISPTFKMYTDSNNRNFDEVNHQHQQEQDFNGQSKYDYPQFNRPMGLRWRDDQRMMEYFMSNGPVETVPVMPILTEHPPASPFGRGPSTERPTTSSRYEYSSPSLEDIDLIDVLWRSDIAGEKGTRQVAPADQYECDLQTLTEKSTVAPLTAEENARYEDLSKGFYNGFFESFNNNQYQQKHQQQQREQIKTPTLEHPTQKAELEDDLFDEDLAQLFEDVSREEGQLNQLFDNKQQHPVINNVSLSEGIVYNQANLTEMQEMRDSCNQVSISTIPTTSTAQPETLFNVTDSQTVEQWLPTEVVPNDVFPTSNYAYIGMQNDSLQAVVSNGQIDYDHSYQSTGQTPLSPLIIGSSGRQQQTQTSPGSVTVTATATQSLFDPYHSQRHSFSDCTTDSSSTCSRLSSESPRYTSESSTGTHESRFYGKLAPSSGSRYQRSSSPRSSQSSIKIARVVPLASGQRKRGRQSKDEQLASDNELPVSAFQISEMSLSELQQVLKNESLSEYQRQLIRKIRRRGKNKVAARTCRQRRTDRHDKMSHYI

BJ [4] = experiment: cytotoxicity toward BJ-TERT fibroblasts, dose response, cell-based, RAS-independent, luminescence (AID 1933); type: functional; details: Homo sapiens
BJ [5] = experiment: cells; type: functional, cell-based; details: Homo sapiens
BJ [6] = experiment: cytotoxicity toward BJ-TERT-LT-ST fibroblasts, dose response, cell-based, RAS-independent, luminescence (AID 1935); type: functional; details: Homo sapiens;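 further: BJ fibroblasts immortalized with TERT plus LT and ST oncogenes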
[7] = cytotoxicity toward DRD oncogenic fibroblasts, dose response, cell-based, non-viral oncogenic, luminescence (AID 1934); type: functional; details: Homo sapiens
[8] = growth suppression of PTEN-null colon cells, dose response, cell-based, HCT116 PTEN knockout (AID 1047); type: functional;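 further: HCT116 colon tumor cells with PTEN knocked out; cells exposed to compound for 60 hours before readout; potency for loss of cell viability measured by luminescence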
[9] = growth suppression of beta-catenin-knockout colon cells, dose response, cell-based, HCT116, human colon tumor (AID 1045); type: functional;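 further: HCT116 colon tumor cells with beta catenin knocked out; cells exposed to compound for 60 hours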
[10] = target: FAD-linked sulfhydryl oxidase ALR (Homo sapiens, UniProt P55789); experiment: inhibitors of human ALR sulfhydryl oxidase, dose response, biochemical, H2O2 detection, luminescence, cherry-pick (AID 493248)
FAD-linked sulfhydryl oxidase ALR, sequence (P55789 whole entry): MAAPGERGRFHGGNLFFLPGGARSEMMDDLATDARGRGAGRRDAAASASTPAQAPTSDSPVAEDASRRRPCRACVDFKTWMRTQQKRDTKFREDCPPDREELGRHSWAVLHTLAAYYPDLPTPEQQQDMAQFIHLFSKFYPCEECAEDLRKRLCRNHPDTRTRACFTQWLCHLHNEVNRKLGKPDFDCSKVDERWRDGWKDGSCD

[11] = target: Neurotensin receptor type 1 (Homo sapiens, UniProt P30989); type: functional;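 further: Image-based confirmatory dose-response assay measuring agonist activity at NTR1; NTR1-expressing U2OS osteosarcoma cells imaged for beta-arrestin GFP spot formation; agonist potency where compounds increase beta-arrestin recruitment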
Neurotensin receptor type 1, sequence (P30989 whole entry): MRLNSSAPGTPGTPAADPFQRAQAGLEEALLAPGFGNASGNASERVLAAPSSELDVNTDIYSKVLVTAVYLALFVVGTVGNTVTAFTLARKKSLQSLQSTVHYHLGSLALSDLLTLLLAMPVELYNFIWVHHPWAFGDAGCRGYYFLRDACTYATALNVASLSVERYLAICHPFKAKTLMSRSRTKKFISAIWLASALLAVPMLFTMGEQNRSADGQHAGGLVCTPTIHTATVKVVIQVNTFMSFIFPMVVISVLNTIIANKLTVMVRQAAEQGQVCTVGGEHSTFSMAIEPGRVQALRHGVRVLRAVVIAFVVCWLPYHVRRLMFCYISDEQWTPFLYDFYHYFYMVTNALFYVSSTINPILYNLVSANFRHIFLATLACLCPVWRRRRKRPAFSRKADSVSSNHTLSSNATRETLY

Alkaline phosphatase, placental type, sequence (P05187 whole entry): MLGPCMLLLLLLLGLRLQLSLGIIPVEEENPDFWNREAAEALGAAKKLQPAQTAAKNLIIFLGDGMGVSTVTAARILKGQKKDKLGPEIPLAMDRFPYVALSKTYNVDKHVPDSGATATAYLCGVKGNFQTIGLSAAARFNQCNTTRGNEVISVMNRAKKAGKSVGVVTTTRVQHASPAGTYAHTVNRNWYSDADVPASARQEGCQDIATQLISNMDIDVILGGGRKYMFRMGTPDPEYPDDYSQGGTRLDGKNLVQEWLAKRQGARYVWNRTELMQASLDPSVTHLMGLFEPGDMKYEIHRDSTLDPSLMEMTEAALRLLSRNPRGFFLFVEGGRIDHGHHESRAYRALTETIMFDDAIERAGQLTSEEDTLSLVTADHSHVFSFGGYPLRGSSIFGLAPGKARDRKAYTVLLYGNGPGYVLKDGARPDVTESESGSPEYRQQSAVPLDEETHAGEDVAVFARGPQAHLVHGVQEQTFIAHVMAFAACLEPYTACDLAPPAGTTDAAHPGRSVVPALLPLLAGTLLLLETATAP

With `COc1cccc(C=NNc2nn3cnnc3c3ccccc23)c1O` the IC50 [1] was > 100 µM (inactive).
For `O=C1NC(=O)N(c2ccccc2)C(=O)/C1=C\C=C\Nc1ccccc1`, the IC50 [2] was > 55.7 µM (not active) and the IC50 (Insulin-degrading enzyme) was > 55.9 µM (not active).
In the case of `C#CCSc1ncc(-c2ccccc2)cn1`, the AC50 [3] is reported as 6.14 µM (active) and the IC50 (Protein skinhead-1) is reported as 15.3 µM (active).
For `c1ccc2c(CCNc3[nH]cnc4ncnc3-4)c[nH]c2c1`, the EC50 (BJ [4]) was 24.4 µM (active), the EC50 (BJ [5]) was 53.2 µM (active) and the EC50 (BJ [6]) was > 75 µM (not active). The EC50 [7] was 30.5 µM (active).
In the case of `Cn1nc(-c2ccc(Cl)cc2)c2cc(C(=O)NCCCN3CCCC3)sc21`, the EC50 (BJ [4]) is reported as 9.41 µM (active), the EC50 (BJ [5]) is reported as 23.1 µM (active) and the EC50 [8] is reported as 4.65 µM (active). For the same compound, the EC50 [9] was 4.01 µM (active), the EC50 (BJ [6]) was > 150 µM (inconclusive) and the EC50 [7] was 12.4 µM (active). For the same compound, the AC50 [10] was 6.39 µM (active).
With `COc1cccc(OC)c1C(=O)Oc1ccc2c(c1)O/C(=C\c1ccncc1)C2=O` the EC50 [11] was 15.9 µM (active).
